Tested on: UCD patients
Assay: Example 3: TEAEs, serious and non-serious adverse events
Assay type: in vivo
Description: Sixteen newborn infants aged 0 to 27 days, and 10 infants and toddlers aged 28 days to 23 months received RAVICTI Oral Liquid administered just prior to breastfeeding or intake of formula or food. The recommended dosing regimen was 3-6 times per day depending on feeding schedule.
Number of Subjects with Treatment-Emergent Adverse Events (TEAEs), Serious TEAEs, Deaths, and Discontinuations Due to TEAEs
An adverse event (AE) is any untoward medical occurrence, whether or not the event is considered related to the study drug. A serious AE is any AE that: results in death; is life threatening; requires hospitalization or prolongation of existing hospitalization; results in disability/incapacity; is a congenital anomaly/birth defect; is an important medical event. TEAEs are defined as AEs with an onset date on or after the first dose of study medication until study discontinuation. The Investigator assessed the causal relationship of each TEAE to the study drug as not related, possibly related, or probably related. From the first dose of study treatment through 30 days after the final dose (mean [SD] duration of treatment was 9.13 [6.838] months).

O=C(CCCc1ccccc1)OCC(COC(=O)CCCc1ccccc1)OC(=O)CCCc1ccccc1 [RAVICTI, benzenebutanoic acid, 1′,1″-(1,2,3-propanetriyl) ester]
Number of Deaths (All Causes) (Age 0 to <2 Months): 0
Serious AE Ammonia Increased: Deaths causally related to treatment/all (Age 0 to <2 Months): 0/0
Serious AE Ammonia Increased: Occurrences causally related to treatment/all (Age 0 to <2 Months): 0/0
Serious AE Apnoeic Attack: Deaths causally related to treatment/all (Age 0 to <2 Months): 0/0
Serious AE Apnoeic Attack: Occurrences causally related to treatment/all (Age 0 to <2 Months): 0/0
Serious AE Asthma: Deaths causally related to treatment/all (Age 0 to <2 Months): 0/0
Serious AE Asthma: Occurrences causally related to treatment/all (Age 0 to <2 Months): 0/0
Serious AE Atelectasis: Deaths causally related to treatment/all (Age 0 to <2 Months): 0/0
Serious AE Atelectasis: Occurrences causally related to treatment/all (Age 0 to <2 Months): 0/1
Serious AE Bacteraemia: Deaths causally related to treatment/all (Age 0 to <2 Months): 0/0
Serious AE Bacteraemia: Occurrences causally related to treatment/all (Age 0 to <2 Months): 0/1
Serious AE Cellulitis: Deaths causally related to treatment/all (Age 0 to <2 Months): 0/0
Serious AE Cellulitis: Occurrences causally related to treatment/all (Age 0 to <2 Months): 0/1
Serious AE Croup infectious: Deaths causally related to treatment/all (Age 0 to <2 Months): 0/0
Serious AE Croup infectious: Occurrences causally related to treatment/all (Age 0 to <2 Months): 0/1
Serious AE Cyanosis: Deaths causally related to treatment/all (Age 0 to <2 Months): 0/0
Serious AE Cyanosis: Occurrences causally related to treatment/all (Age 0 to <2 Months): 0/0
Serious AE Dehydration: Deaths causally related to treatment/all (Age 0 to <2 Months): 0/0
Serious AE Dehydration: Occurrences causally related to treatment/all (Age 0 to <2 Months): 0/1
Serious AE Device related infection: Deaths causally related to treatment/all (Age 0 to <2 Months): 0/0
Serious AE Device related infection: Occurrences causally related to treatment/all (Age 0 to <2 Months): 0/1
Serious AE Feeding Disorder: Deaths causally related to treatment/all (Age 0 to <2 Months): 0/0
Serious AE Feeding Disorder: Occurrences causally related to treatment/all (Age 0 to <2 Months): 0/1
Serious AE Gastroenteritis: Deaths causally related to treatment/all (Age 0 to <2 Months): 0/0
Serious AE Gastroenteritis: Occurrences causally related to treatment/all (Age 0 to <2 Months): 0/0
Serious AE Hyperammonaemia: Deaths causally related to treatment/all (Age 0 to <2 Months): 0/0
Serious AE Hyperammonaemia: Occurrences causally related to treatment/all (Age 0 to <2 Months): 0/7
Serious AE Influenza: Deaths causally related to treatment/all (Age 0 to <2 Months): 0/0
Serious AE Influenza: Occurrences causally related to treatment/all (Age 0 to <2 Months): 0/0
Serious AE Lethargy: Deaths causally related to treatment/all (Age 0 to <2 Months): 0/0
Serious AE Lethargy: Occurrences causally related to treatment/all (Age 0 to <2 Months): 0/1
Serious AE Medical device site infection: Deaths causally related to treatment/all (Age 0 to <2 Months): 0/0
Serious AE Medical device site infection: Occurrences causally related to treatment/all (Age 0 to <2 Months): 0/1
Serious AE Meningitis bacterial: Deaths causally related to treatment/all (Age 0 to <2 Months): 0/0
Serious AE Meningitis bacterial: Occurrences causally related to treatment/all (Age 0 to <2 Months): 0/1
Serious AE Neutropenia: Deaths causally related to treatment/all (Age 0 to <2 Months): 0/0
Serious AE Neutropenia: Occurrences causally related to treatment/all (Age 0 to <2 Months): 0/1
Serious AE Peritonitis: Deaths causally related to treatment/all (Age 0 to <2 Months): 0/0
Serious AE Peritonitis: Occurrences causally related to treatment/all (Age 0 to <2 Months): 0/0
Serious AE Pneumatosis intestinalis: Deaths causally related to treatment/all (Age 0 to <2 Months): 0/0
Serious AE Pneumatosis intestinalis: Occurrences causally related to treatment/all (Age 0 to <2 Months): 0/0
Serious AE Pyrexia: Deaths causally related to treatment/all (Age 0 to <2 Months): 0/0
Serious AE Pyrexia: Occurrences causally related to treatment/all (Age 0 to <2 Months): 0/0
Serious AE Respiratory syncytial virus infection: Deaths causally related to treatment/all (Age 0 to <2 Months): 0/0
Serious AE Respiratory syncytial virus infection: Occurrences causally related to treatment/all (Age 0 to <2 Months): 0/1
Serious AE Rhinovirus infection: Deaths causally related to treatment/all (Age 0 to <2 Months): 0/0
Serious AE Rhinovirus infection: Occurrences causally related to treatment/all (Age 0 to <2 Months): 0/0
Serious AE Status asthmaticus: Deaths causally related to treatment/all (Age 0 to <2 Months): 0/0
Serious AE Status asthmaticus: Occurrences causally related to treatment/all (Age 0 to <2 Months): 0/0
Serious AE Tracheitis: Deaths causally related to treatment/all (Age 0 to <2 Months): 0/0
Serious AE Tracheitis: Occurrences causally related to treatment/all (Age 0 to <2 Months): 0/1
Serious AE Upper respiratory tract infection: Deaths causally related to treatment/all (Age 0 to <2 Months): 0/0
Serious AE Upper respiratory tract infection: Occurrences causally related to treatment/all (Age 0 to <2 Months): 0/1
Serious AE Urinary tract infection: Deaths causally related to treatment/all (Age 0 to <2 Months): 0/0
Serious AE Urinary tract infection: Occurrences causally related to treatment/all (Age 0 to <2 Months): 0/1
Serious AE Viral infection: Deaths causally related to treatment/all (Age 0 to <2 Months): 0/0
Serious AE Viral infection: Occurrences causally related to treatment/all (Age 0 to <2 Months): 0/1
Serious AE Viral upper respiratory tract infection: Deaths causally related to treatment/all (Age 0 to <2 Months): 0/0
Serious AE Viral upper respiratory tract infection: Occurrences causally related to treatment/all (Age 0 to <2 Months): 0/0
Serious AE Vomiting: Deaths causally related to treatment/all (Age 0 to <2 Months): 0/0
Serious AE Vomiting: Occurrences causally related to treatment/all (Age 0 to <2 Months): 0/2
Number of Deaths (All Causes) (Age 2 Months to <2 Years): 1
Serious AE Ammonia Increased: Deaths causally related to treatment/all (Age 2 Months to <2 Years): 0/0
Serious AE Ammonia Increased: Occurrences causally related to treatment/all (Age 2 Months to <2 Years): 0/1
Serious AE Apnoeic Attack: Deaths causally related to treatment/all (Age 2 Months to <2 Years): 0/0
Serious AE Apnoeic Attack: Occurrences causally related to treatment/all (Age 2 Months to <2 Years): 0/2
Serious AE Asthma: Deaths causally related to treatment/all (Age 2 Months to <2 Years): 0/0
Serious AE Asthma: Occurrences causally related to treatment/all (Age 2 Months to <2 Years): 0/1
Serious AE Atelectasis: Deaths causally related to treatment/all (Age 2 Months to <2 Years): 0/0
Serious AE Atelectasis: Occurrences causally related to treatment/all (Age 2 Months to <2 Years): 0/0
Serious AE Bacteraemia: Deaths causally related to treatment/all (Age 2 Months to <2 Years): 0/0
Serious AE Bacteraemia: Occurrences causally related to treatment/all (Age 2 Months to <2 Years): 0/0
Serious AE Cellulitis: Deaths causally related to treatment/all (Age 2 Months to <2 Years): 0/0
Serious AE Cellulitis: Occurrences causally related to treatment/all (Age 2 Months to <2 Years): 0/0
Serious AE Croup infectious: Deaths causally related to treatment/all (Age 2 Months to <2 Years): 0/0
Serious AE Croup infectious: Occurrences causally related to treatment/all (Age 2 Months to <2 Years): 0/1
Serious AE Cyanosis: Deaths causally related to treatment/all (Age 2 Months to <2 Years): 0/0
Serious AE Cyanosis: Occurrences causally related to treatment/all (Age 2 Months to <2 Years): 0/2
Serious AE Dehydration: Deaths causally related to treatment/all (Age 2 Months to <2 Years): 0/0
Serious AE Dehydration: Occurrences causally related to treatment/all (Age 2 Months to <2 Years): 0/0
Serious AE Device related infection: Deaths causally related to treatment/all (Age 2 Months to <2 Years): 0/0
Serious AE Device related infection: Occurrences causally related to treatment/all (Age 2 Months to <2 Years): 0/0
Serious AE Feeding Disorder: Deaths causally related to treatment/all (Age 2 Months to <2 Years): 0/0

From patent US10668040B2, “Treatment of urea cycle disorders in neonates and infants” (Horizon Therapeutics, LLC, priority 2017, dated 2020)
